Data from ChEMBL document CHEMBL1201862, “PubChem BioAssay data set” (2004).
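Results reflect a 48-hour exposure of cells in 96-well plates to compound at five concentrations. Here, GI50 denotes the concentration required for 50% inhibition of growth.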 Calls of active or inactive are those of the source. Cut-off read from the data, not from the text of the source: active = GI50 up to about 1.1 µM and inactive = higher.

Legend:
Test in all cases: NCI anticancer screen, dose series, 48 h
M14 = test system: M14
OVCAR-5 = test system: OVCAR-5
OVCAR-3 = test system: OVCAR-3
SW-620 = test system: SW-620
CAKI-1 = test system: CAKI-1
SF-295 = test system: SF-295
786-0 = test system: 786-0
DLD-1 = test system: DLD-1
SNB-19 = test system: SNB-19
MOLT-4 = test system: MOLT-4
KM12 = test system: KM12
COLO 205 = test system: COLO 205
HL-60 = test system: HL-60
A498 = test system: A498
OVCAR-8 = test system: OVCAR-8
SK-MEL-2 = test system: SK-MEL-2
EKVX = test system: EKVX

Measured: GI50

O=[N+]([O-])c1ccc(C2CC(c3ccc(NCc4nc5ccccc5[nH]4)cc3)=NO2)cc1 (configuration not stated)
inactive: M14 33.5 µM | OVCAR-5 > 100 µM | OVCAR-3 3.56 µM | SW-620 33.5 µM | CAKI-1 > 100 µM | SF-295 21.8 µM | 786-0 39.6 µM | DLD-1 45 µM | SNB-19 37.3 µM | MOLT-4 6.92 µM | KM12 21.1 µM | COLO 205 > 100 µM | HL-60 20.4 µM | A498 15.3 µM | OVCAR-8 37.7 µM | SK-MEL-2 > 100 µM

CC(C)/C=C1\CCC(CN2CCOCC2)C1=O (configuration not stated)
inactive: M14 11.9 µM | OVCAR-5 22.5 µM | OVCAR-3 18.2 µM | SW-620 2.7 µM | CAKI-1 4.24 µM | SF-295 45 µM | 786-0 3.66 µM | DLD-1 2.69 µM | SNB-19 > 100 µM | MOLT-4 2.99 µM | KM12 10.5 µM | COLO 205 6.85 µM | HL-60 2.13 µM | EKVX 19.1 µM | A498 > 35.9 µM | OVCAR-8 11.1 µM | SK-MEL-2 17.7 µM

CCCCCCCCCCCCCC(=S)N/C=C/OC
inactive: M14 35.3 µM | OVCAR-5 > 100 µM | OVCAR-3 23.6 µM | SW-620 35.5 µM | SF-295 30.2 µM | 786-0 30.8 µM | DLD-1 33.4 µM | SNB-19 45.9 µM | KM12 28.2 µM | COLO 205 27.1 µM | HL-60 16.1 µM | EKVX 31 µM | A498 23.2 µM | OVCAR-8 38 µM | SK-MEL-2 32 µM

NC1N=Nc2ccccc21 (configuration not stated)
inactive: M14 > 100 µM | OVCAR-5 > 100 µM | OVCAR-3 > 100 µM | SW-620 > 100 µM | CAKI-1 > 100 µM | SF-295 > 100 µM | 786-0 > 100 µM | DLD-1 > 100 µM | SNB-19 > 100 µM | MOLT-4 > 100 µM | KM12 > 100 µM | COLO 205 > 100 µM | HL-60 > 100 µM | EKVX > 100 µM | OVCAR-8 > 100 µM | SK-MEL-2 > 100 µM

O=S(=O)(c1ccccc1)C1CN2OC1(S(=O)(=O)c1ccccc1)CC2c1ccc(Br)cc1 (configuration not stated)
inactive: M14 > 100 µM | OVCAR-5 > 100 µM | OVCAR-3 84.7 µM | SW-620 > 100 µM | CAKI-1 60 µM | SF-295 31.8 µM | 786-0 38.1 µM | DLD-1 > 100 µM | SNB-19 46.8 µM | MOLT-4 > 100 µM | KM12 > 100 µM | HL-60 > 100 µM | EKVX > 100 µM | A498 96.4 µM | OVCAR-8 > 100 µM | SK-MEL-2 > 100 µM

N#CCCN(c1ccc(/C=N/c2ccccc2)cc1)S(=O)(=O)c1ccccc1
inactive: M14 8.93 µM | OVCAR-3 > 100 µM | SW-620 > 100 µM | CAKI-1 > 100 µM | SF-295 12.4 µM | 786-0 > 100 µM | DLD-1 > 100 µM | SNB-19 > 100 µM | MOLT-4 > 100 µM | KM12 16.5 µM | COLO 205 > 100 µM | HL-60 31.1 µM | EKVX 35.7 µM | A498 > 100 µM | OVCAR-8 > 100 µM | SK-MEL-2 > 100 µM

COC1(C)CC2N(C(=O)c3ccccc3)N=C(c3ccccc3)CC2(C)O1 (configuration not stated)
inactive: M14 > 100 µM | OVCAR-5 > 100 µM | OVCAR-3 > 100 µM | SW-620 > 100 µM | CAKI-1 > 100 µM | SF-295 > 100 µM | 786-0 > 100 µM | DLD-1 44.5 µM | SNB-19 > 100 µM | MOLT-4 61.7 µM | KM12 > 100 µM | HL-60 > 100 µM | A498 > 100 µM | OVCAR-8 > 100 µM | SK-MEL-2 > 100 µM

CCOC(=O)/N=C(\N)SCc1ccccc1
inactive: M14 > 100 µM | OVCAR-5 > 100 µM | SW-620 > 100 µM | CAKI-1 > 100 µM | SF-295 > 100 µM | 786-0 > 100 µM | DLD-1 > 100 µM | SNB-19 > 100 µM | MOLT-4 26.5 µM | KM12 > 100 µM | HL-60 50.9 µM | EKVX > 100 µM | A498 > 100 µM | OVCAR-8 > 100 µM | SK-MEL-2 44.6 µM

CCCCCCCCCCCOC(=S)NC(C)C
inactive: M14 23.2 µM | OVCAR-5 24.7 µM | SW-620 16.3 µM | CAKI-1 19 µM | SF-295 21 µM | 786-0 19.1 µM | DLD-1 21.4 µM | SNB-19 29.6 µM | MOLT-4 16.7 µM | KM12 19.7 µM | HL-60 15.6 µM | EKVX 20.9 µM | A498 19.6 µM | OVCAR-8 16.6 µM | SK-MEL-2 19.2 µM

Cc1nn(-c2nc3ccccc3s2)c2c1C(=O)c1ccccc1-2
inactive: M14 > 100 µM | OVCAR-5 > 100 µM | OVCAR-3 > 100 µM | SW-620 > 100 µM | SF-295 > 100 µM | 786-0 80.4 µM | DLD-1 > 100 µM | SNB-19 > 100 µM | KM12 > 100 µM | COLO 205 > 100 µM | HL-60 > 100 µM | EKVX > 100 µM | A498 > 100 µM | SK-MEL-2 > 100 µM

C[Si](C)(C)c1ccc(CC2(Cc3ccc([Si](C)(C)C)cc3)CCNC2)cc1
inactive: M14 1.76 µM | OVCAR-5 4.67 µM | OVCAR-3 1.97 µM | SW-620 1.86 µM | CAKI-1 2.39 µM | SF-295 2.52 µM | 786-0 1.77 µM | DLD-1 2.51 µM | SNB-19 4 µM | KM12 1.99 µM | COLO 205 1.8 µM | HL-60 7.18 µM | EKVX 6.75 µM | A498 1.55 µM | OVCAR-8 1.85 µM | SK-MEL-2 1.76 µM

COc1ccc(C2Oc3ccc(O)cc3[C@@H]2C)cc1OC (some centres not stated)
inactive: M14 > 100 µM | OVCAR-5 > 100 µM | OVCAR-3 > 100 µM | SW-620 > 100 µM | CAKI-1 18.9 µM | SF-295 > 100 µM | 786-0 > 100 µM | DLD-1 > 100 µM | SNB-19 > 100 µM | MOLT-4 37.6 µM | KM12 > 100 µM | COLO 205 > 100 µM | HL-60 34.3 µM | EKVX > 100 µM | OVCAR-8 > 100 µM | SK-MEL-2 > 100 µM

COc1ccc(/C=C/c2cc(OC)c(O[Si](C)(C)C(C)(C)C)c(OC)c2)cc1
inactive: M14 > 100 µM | OVCAR-5 64.9 µM | OVCAR-3 > 100 µM | SW-620 > 100 µM | CAKI-1 > 100 µM | 786-0 > 100 µM | DLD-1 > 100 µM | SNB-19 > 100 µM | MOLT-4 63.4 µM | KM12 > 100 µM | COLO 205 > 100 µM | EKVX > 100 µM | A498 > 100 µM | OVCAR-8 > 100 µM | SK-MEL-2 > 100 µM
